According to patent US12098151B2 (priority 2018, dated 2024):
Where “and” joins values, the source holds several entries; their conditions need not be identical. Identical values can stand only once. Like-named read-outs stand apart in the source and are kept apart here.

Legend:
Junin virus = assay: microbe, parasite or virus in culture; assay type: cell-based
LCMV = assay: microbe, parasite or virus in culture; assay type: cell-based, lymphocytic choriomeningitis virus (LCMV)
[1] = tested on: Lassa virus (LF2384 strain); assay: microbe, parasite or virus in culture; assay type: cell-based; conditions: Mammarenavirus lassaense, Vero, 72 h, read-out: Log10 of IC90 (nM) (converted)
[2] = tested on: Lassa virus (Josiah strain); assay type: cell-based
[3] = Mammarenavirus juninense, HEK-293T, 96 h
[4] = Mammarenavirus choriomeningitidis, KB, 96 h

| Structure (SMILES) | EC50 (Junin virus; [3]) | EC50 (LCMV; [4]) | also measured |
| --- | --- | --- | --- |
| O=C(O)c1cn2c(c(O)c1=O)C(=O)N(CC1CC1)CN2C1c2ccccc2CCc2ccccc21 [II-003] | 6.7 nM | 8 nM | IC90 [1]: 2.53 nM |
| CC(C)N1CN(C2c3ccccc3CCc3ccccc32)n2cc(C(=O)O)c(=O)c(O)c2C1=O [Compound I-021] | 8.2 nM | 2 nM | Lassa virus proliferation inhibitory effect compared with control compound Ribavirin [2]: significantly stronger Lassa virus proliferation inhibitory effect than the control compound Ribavirin; Virus infectivity titer (24 h.p.i., PFU/ml) [2]: 5 × 10^4 PFU/ml and <10 PFU/ml; Virus infectivity titer (48 h.p.i., PFU/ml) [2]: 5 × 10^6 PFU/ml and 5 × 10^3 PFU/ml; IC90 [1]: 3.1 nM |
| CCN1CN(C2c3ccccc3CCc3ccccc32)n2cc(C(=O)O)c(=O)c(O)c2C1=O [Compound I-078] | 3.3 nM | 6.2 nM | IC90 [1]: 3.14 nM |
| O=C(O)c1cn2c(c(O)c1=O)C(=O)N(CC1CCC1)CN2C1c2cccc(F)c2CCc2c(F)cccc21 [III-035] | 9.6 nM | 7.2 nM | – |
| O=C(O)c1cn2c(c(O)c1=O)C(=O)N(C1CC1)CN2C1c2ccccc2CCc2ccccc21 [II-001] | 4.5 nM | 8.1 nM | – |
| O=C(O)c1cn2c(c(O)c1=O)C(=O)N(Cc1cccnc1)C[C@@H]2C(c1ccccc1)c1ccccc1 [Compound I-030] | 44 nM | 31 nM | – |
| O=C(O)c1cn2c(c(O)c1=O)C(=O)N(C(C1CC1)C1CC1)CN2C1c2cccc(F)c2CCc2c(F)cccc21 [III-036] | 5.1 nM | 6.3 nM | – |
| C#CCN1C[C@H](C(c2ccccc2)c2ccccc2)n2cc(C(=O)O)c(=O)c(O)c2C1=O [Compound I-040] | 173 nM | 44 nM | – |
| CN1C[C@H](C(c2ccccc2)c2ccccc2)n2cc(C(=O)O)c(=O)c(O)c2C1=O [Compound I-046] | 382 nM | 69 nM | – |
| Cc1cccc2c1CCc1c(C)cccc1C2N1CN(CC2CCC2)C(=O)c2c(O)c(=O)c(C(=O)O)cn21 [III-033] | 6.4 nM | 8.8 nM | – |
| NC(=O)c1ncn([C@@H]2O[C@H](CO)[C@@H](O)[C@H]2O)n1 [Ribavirin, reference compound] | – | – | Virus infectivity titer (48 h.p.i., PFU/ml) [2]: 9 × 10^4 PFU/ml and 6 × 10^6 PFU/ml and 5 × 10^6 PFU/ml |
| CC1Nn2cc(C(=O)O)c(=O)c(O)c2C(=O)N1C (stereo not shown) [Compound I-011] | 1670 nM | 1930 nM | – |
| CN1CN(C2c3ccccc3CCc3ccccc32)n2cc(C(=O)O)c(=O)c(O)c2C1=O [II-004] | 9.2 nM | 24 nM | – |
| COCCN1C[C@H](C(c2ccccc2)c2ccccc2)n2cc(C(=O)O)c(=O)c(O)c2C1=O [Compound I-045] | – | – | EC50 (Junin virus): 374 nM; EC50 (LCMV): 24 nM |
| O=C(O)c1cn2c(c(O)c1=O)C(=O)N(CC1CCC1)CN2C1c2ccccc2CCc2ccccc21 [III-016] | 12 nM | 7.3 nM | – |
| CN1C(=O)c2c(O)c(=O)c(C(=O)O)cn2C[C@H]1C(c1ccccc1)c1ccccc1 [Compound I-042] | 255 nM | 58 nM | – |
| O=C(O)c1cn2c(c(O)c1=O)C(=O)N1CCCCN1C2C(c1ccccc1)c1ccccc1 (stereo not shown) [Compound I-043] | 281 nM | 119 nM | – |
| O=C(O)c1cn2c(c(O)c1=O)C(=O)N(CC1CCOCC1)C[C@@H]2C(c1ccccc1)c1ccccc1 [Compound I-034] | 68 nM | 32 nM | – |
| COCCN1C[C@H](Cc2ccccc2)n2cc(C(=O)O)c(=O)c(O)c2C1=O [Compound I-057] | 2180 nM | 225 nM | – |
| Cc1cccc2c1CCc1c(C)cccc1C2N1CN(CC2CC2)C(=O)c2c(O)c(=O)c(C(=O)O)cn21 [III-031] | 4.5 nM | 4.1 nM | – |

| Structure (SMILES) | EC50 (Junin virus; [3]) | EC50 (LCMV; [4]) | also measured |
| --- | --- | --- | --- |
| CC1N(C)C(=O)c2c(O)c(=O)c(C(=O)O)cn2N1C(c1ccccc1)c1ccccc1 (stereo not shown) [Compound I-006] | 36 nM | 136 nM | – |
| COCCN1C[C@H](C(c2ccccc2)c2ccccc2)n2cc(C(=O)O)c(=O)c(O)c2C1=O [Compound I-039] | 240 nM | 17 nM | – |
| O=C(O)c1cn2c(c(O)c1=O)C(=O)N(Cc1ccccc1)C[C@@H]2C(c1ccccc1)c1ccccc1 [Compound I-041] | 180 nM | 6.2 nM | – |
| O=C(O)c1cn2c(c(O)c1=O)C(=O)N(Cc1ccccn1)C[C@@H]2C(c1ccccc1)c1ccccc1 [Compound I-025] | 13 nM | 5 nM | – |
| O=C(O)c1cn2c(c(O)c1=O)C(=O)N(CC1CC1)C[C@@H]2C(c1ccccc1)c1ccccc1 [Compound I-028] | 40 nM | 13 nM | – |
| CC(C)N1CN(C2c3cc(F)c(F)cc3CCc3cc(F)c(F)cc32)n2cc(C(=O)O)c(=O)c(O)c2C1=O [Compound I-074] | 50 nM | 48 nM | – |
| O=C(O)c1cn2c(c(O)c1=O)C(=O)N(CC1CC1)CN2C(c1cccc(-c2ccccc2)c1)c1cccc(-c2ccccc2)c1 [III-030] | 18 nM | 78 nM | – |
| O=C(O)c1cn2c(c(O)c1=O)C(=O)N(CC(F)(F)F)C[C@@H]2C(c1ccccc1)c1ccccc1 [Compound I-049] | 620 nM | 160 nM | – |
| O=C(O)c1cn2c(c(O)c1=O)C(=O)N1CCCO[C@@H]1[C@@H]2Cc1ccccc1 [Compound I-054] | 1620 nM | 1960 nM | – |
| CC(C)N1CN(C2c3ccccc3CSc3ccccc32)n2cc(C(=O)O)c(=O)c(O)c2C1=O (stereo not shown) [III-021] | – | – | EC50 (Junin virus): 6.2 nM; EC50 (LCMV): 4.9 nM |
| O=C(O)c1cn2c(c(O)c1=O)C(=O)N(CC1CCCCO1)C[C@@H]2C(c1ccccc1)c1ccccc1 (stereo partly shown) [Compound I-026] | 17 nM | 6.9 nM | – |
| O=C(O)c1cn2c(c(O)c1=O)C(=O)N(CCOc1ccc(F)cc1)C[C@@H]2C(c1ccccc1)c1ccccc1 [Compound I-048] | 518 nM | 56 nM | – |
| CC(C)N1CN(C2c3ccc(Cl)cc3CCc3cc(Cl)ccc32)n2cc(C(=O)O)c(=O)c(O)c2C1=O [III-025] | 31 nM | 17 nM | – |
| CC(C)OCCN1C[C@H](C(c2ccccc2)c2ccccc2)n2cc(C(=O)O)c(=O)c(O)c2C1=O [Compound I-035] | 71 nM | < 6 nM | – |
| CC(C)N1CN(C2c3ccccc3C3C(c4ccccc42)C3(F)F)n2cc(C(=O)O)c(=O)c(O)c2C1=O (single isomer, unassigned) [III-010] | 10 nM | 9.9 nM | – |
| O=C(O)c1cn2c(c(O)c1=O)C(=O)N(Cc1ccc(F)cc1F)C[C@@H]2C(c1ccccc1)c1ccccc1 [Compound I-020] | 7.1 nM | 5.9 nM | – |
| COCCN1C(=O)c2c(O)c(=O)c(C(=O)O)cn2N(C2c3ccccc3CCc3ccccc32)C1CCSC (stereo not shown) [Compound I-022] | 10 nM | 1.6 nM | – |
| CCCCCN1CN(C2c3ccccc3CCc3ccccc32)n2cc(C(=O)O)c(=O)c(O)c2C1=O [III-006] | 9.4 nM | 25 nM | – |
| Cc1cc(CN2C[C@H](C(c3ccccc3)c3ccccc3)n3cc(C(=O)O)c(=O)c(O)c3C2=O)no1 [Compound I-027] | 19 nM | 9.4 nM | – |
| CC(C)N1CN(C2c3ccccc3Oc3ccccc32)n2cc(C(=O)O)c(=O)c(O)c2C1=O [III-001] | 110 nM | 19 nM | – |
